Reference: patent US20050131056A1, “2- thia-dibenzoazulenes as inhibitors of tumor necrosis factor production and intermediates for the preparation thereof” (Pliva-Istrazivacki Institut d.o.o., priority 2002, published 2005)

Test system: TNF-α and IL-1 secretion
Assay: investigated assays, not specified which (TNF-α/IL-1 secretion in human PBMC, in mouse peritoneal macrophages, LPS-induced secretion in mice, writhing assay, LPS-induced shock)
Conditions: at least two of five assays, not named; active = IC50 20 μM or lower (PBMC), 10 μM or lower (macrophages), 30% or more TNF-α inhibition at 10 mg/kg, analgetic activity as acetylsalicylic acid or better, survival 40% or more at 30 mg/kg
Protocol: The inhibitory action of the present compounds upon TNF-α and IL-1 secretion was determined by the following in vitro and in vivo experiments:
Human peripheral blood mononuclear cells (PBMC) were prepared from heparinized whole blood after separating PBMC on Ficoll-Paque™Plus (Amersham-Pharmacia). To determine the TNF-α level, 3.5-5×10^4 cells were cultivated in a total volume of 200 μl for 18 to 24 hours on microtitre plates with a flat bottom (96 wells, Falcon) in RPMI 1640 medium, into which there were added 10% FBS (Fetal Bovine Serum, Biowhittaker) previously inactivated at 54° C./30 min, 100 units/ml of penicillin, […] of streptomycin and 20 mM HEPES (GIBCO). The cells were incubated at 37° C. in an atmosphere with 5% CO2 and 90% humidity. […] The IL-1 level was determined in an assay under the same conditions and with the same number of cells and the same concentration of stimuli stimulus by ELISA procedure (R&D Systems). The percentage of inhibition of TNF-α or IL-1 production was calculated by the equation: • % inhibition=[1−(TS-NC)/(PC-NC)]*100. […]
In order to obtain peritoneal macrophages, Balb/C mouse strain males, age 8 to 12 weeks, were injected i.p. with 300 μg of zymosan (SIGMA) dissolved in a phosphate buffer (PBS) in a total volume of 0.1 ml/mouse. […] The TNF-α level in the cell supernatant was determined by ELISA procedure (R&D Systems, Biosource). […]

For O=Cc1scc2c1-c1ccccc1Sc1ccccc1-2 [Example 14, 2,8-Dithia-dibenzo[e,h]azulene-1-carbaldehyde], which “activity in the investigated assays” value is on record?
Its value is “activity in at least two investigated assays”.
